How the values were obtained:
Assay type in all cases: in vivo, nude/nude mice
GP2D cells = assay: GP2D colon cancer xenograft tumor volume; details: for Average Tumor Volumes: GP2D TGI-38 tumor bearing mice
Experimental: (§1) Immunocompromised nude/nude mice are inoculated in the right hind flank with cells harboring a KRas G12D mutation. When tumor volumes reach between 200-400 mm^3 in size, the mice are divided into four to five groups of 5 mice each. The first group is administered vehicle only. […] The fourth group is administered the single agent dose of the KRas G12D inhibitor using the twice daily for 2 sequential days followed by 5 days off schedule in combination with the single agent dose of the SHP-2 inhibitor. The treatment period varies from cell line to cell line but typically is between 15-28-days. Tumor volumes are measured using a caliper every two three days and tumor volumes are calculated by the formula: […].
(§2) 20 to 25 nude/nude mice per study were inoculated in the right hind limb with 5×10^6 LS180 cells, GP2D cells, Panc 02.03 cells, or AsPC-1 cells. When tumor volumes reached ˜200 mm^3-400 mm3 (study day 0) 5 mice in each of the groups were administered i.p. vehicle only (10% captisol in 50 mM citrate buffer pH 5.0), 30 mg/kg of Kras G12) inhibitor MRTX1133 (10% captisol in 50 mM citrate buffer, pH 5.0) either on the twice daily schedule or the twice daily for 2 consecutive days followed by 5 days off schedule, 10 mg/kg twice daily of the TNO-155 (0.5% methylcellulose and 0.1% Tween 80 in water) SHP2 inhibitor or 30 mg/kg once daily of the RMC-4550 (10% captisol in 50 mM citrate buffer pH 5.0) SHP2 inhibitor, or 30 mg/kg of Kras G12D inhibitor on either schedule and either TNO-155 or RMC-4550. Tumor volumes, measured at pre-specified days, for the five mice per group were averaged and are reported for LS180, GP2D, Panc 02.03, and AsPC-1 in Tables 2, 3, 4 and 5, respectively.
20 nude/nude mice were inoculated with GP2D cells in the right hind flank. When the tumors reached ˜300 mm^3 four treatment groups were established with five mice per group.

Panc 02.03 cells = assay: Panc 02.03 pancreatic cancer xenograft tumor volume; details: for Average Tumor Volumes: Panc 02.03 tumor bearing mice
Experimental: as §1, §2
Experimental Procedures. 25 nude/nude mice were inoculated with Panc 02.03 cells in the right hind flank. When the tumors reached ˜300 mm^3 four treatment groups were established with five mice per group.

AsPC-1 cells = assay: AsPC-1 pancreatic cancer xenograft tumor volume; details: for Average Tumor Volumes: AsPC-1 tumor bearing mice
Experimental: as §1, §2
Experimental Procedures. 20 nude/nude mice were inoculated with AsPC-1 cells in the right hind flank. When the tumors reached ˜200 mm^3 four treatment groups were established with five mice per group.

LS180 cells = assay: LS180 colon cancer xenograft tumor volume; details: for Average Tumor Volumes: LS180 tumor bearing mice, TNO155 10 mg/kg BID Daily
Experimental: as §1, §2
25 nude/nude mice were inoculated with LS180 cells in the right hind flank. When the tumors reached ˜250 mm^3 five treatment groups were established with five mice per group.

[1] = MRTX1133 30 mg/kg BID Daily, Study Day 1
[2] = TNO155 10 mg/kg BID Daily, Study Day 1

With `C#Cc1c(F)ccc2cc(O)cc(-c3ncc4c(N5C[C@H]6CC[C@@H](C5)N6)nc(OC[C@@]56CCCN5C[C@H](F)C6)nc4c3F)c12` [MRTX1133, 4-(4-((1R,5S)-3,8-diazabicyclo[3.2.1]octan-3-yl)-8-fluoro-2-(((2R,7aS)-2-fluorohexahydro-1H-pyrrolizin-7a-yl)methoxy)pyrido[4,3-d]pyrimidin-7-yl)-5-ethynyl-6-fluoronaphthalen-2-ol] the “Average Tumor Volumes” value (GP2D cells; MRTX1133 30 mg/kg BID Daily, Study Day 31) was 333.196 mm^3, the tumor regression (Panc 02.03 cells; Panc 02.03, MRTX1133 30 mg/kg BID, daily administration, single agent, Day 22) was −33% and the “Average Tumor Volumes” value (Panc 02.03 cells; [1]) was 329.056 mm^3. The “Average Tumor Volumes” value (Panc 02.03 cells; MRTX1133 30 mg/kg BID Daily, Study Day 4) was 282.836 mm^3, the “Average Tumor Volumes” value (Panc 02.03 cells; MRTX1133 30 mg/kg BID Daily, Study Day 8) was 208.15 mm^3 and the “Average Tumor Volumes” value (Panc 02.03 cells; MRTX1133 30 mg/kg BID Daily, Study Day 11) was 189.782 mm^3. For the same compound, the “Average Tumor Volumes” value (Panc 02.03 cells; MRTX1133 30 mg/kg BID Daily, Study Day 15) was 205.992 mm^3, the “Average Tumor Volumes” value (Panc 02.03 cells; MRTX1133 30 mg/kg BID Daily, Study Day 18) was 227.806 mm^3 and the “Average Tumor Volumes” value (Panc 02.03 cells; MRTX1133 30 mg/kg BID Daily, Study Day 22) was 220.912 mm^3. For the same compound, the tumor regression (AsPC-1 cells; AsPC-1, MRTX1133 30 mg/kg BID daily, single agent, Day 23) was −28%, the “Average Tumor Volumes” value (AsPC-1 cells; [1]) was 193.378 mm^3 and the “Average Tumor Volumes” value (AsPC-1 cells; MRTX1133 30 mg/kg BID Daily, Study Day 6) was 168.124 mm^3. For the same compound, the “Average Tumor Volumes” value (AsPC-1 cells; MRTX1133 30 mg/kg BID Daily, Study Day 9) was 146.75 mm^3, the “Average Tumor Volumes” value (AsPC-1 cells; MRTX1133 30 mg/kg BID Daily, Study Day 13) was 143.612 mm^3 and the “Average Tumor Volumes” value (AsPC-1 cells; MRTX1133 30 mg/kg BID Daily, Study Day 16) was 120.916 mm^3. The “Average Tumor Volumes” value (AsPC-1 cells; MRTX1133 30 mg/kg BID Daily, Study Day 20) was 119.264 mm^3 and the “Average Tumor Volumes” value (AsPC-1 cells; MRTX1133 30 mg/kg BID Daily, Study Day 23) was 139.296 mm^3.
With `Cc1nc(N2CCC3(CC2)CO[C@@H](C)[C@H]3N)c(CO)nc1-c1cccc(Cl)c1Cl` [RMC-4550, (3-((3S,4S)-4-amino-3-methyl-2-oxa-8-azaspiro[4.5]decan-8-yl)-6-(2,3-dichlorophenyl)-5-methylpyrazin-2-yl)methanol] the “Average Tumor Volumes” value (GP2D cells; RMC-4550 30 mg/kg Once Daily, Study Day 1) was 300.014 mm^3, the “Average Tumor Volumes” value (GP2D cells; RMC-4550 30 mg/kg Once Daily, Study Day 7) was 353.148 mm^3 and the “Average Tumor Volumes” value (GP2D cells; RMC-4550 30 mg/kg Once Daily, Study Day 10) was 398.576 mm^3. For the same compound, the “Average Tumor Volumes” value (GP2D cells; RMC-4550 30 mg/kg Once Daily, Study Day 14) was 497.714 mm^3, the “Average Tumor Volumes” value (GP2D cells; RMC-4550 30 mg/kg Once Daily, Study Day 17) was 530.072 mm^3 and the “Average Tumor Volumes” value (GP2D cells; RMC-4550 30 mg/kg Once Daily, Study Day 21) was 567.882 mm^3. The “Average Tumor Volumes” value (GP2D cells; RMC-4550 30 mg/kg Once Daily, Study Day 26) was 685.836 mm^3, the “Average Tumor Volumes” value (GP2D cells; RMC-4550 30 mg/kg Once Daily, Study Day 28) was 807.148 mm^3 and the “Average Tumor Volumes” value (GP2D cells; RMC-4550 30 mg/kg Once Daily, Study Day 31) was 970.626 mm^3. For the same compound, the “Average Tumor Volumes” value (GP2D cells; RMC-4550 30 mg/kg Once Daily, Study Day 35) was 1027.032 mm^3 and the tumor growth inhibition (GP2D cells; GP2D, RMC-4550 30 mg/kg QD, single agent, Day 35) was 56%.
With `C[C@@H]1OCC2(CCN(c3cnc(Sc4ccnc(N)c4Cl)c(N)n3)CC2)[C@@H]1N` [TNO155] the tumor growth inhibition (LS180 cells; LS180, TNO155 10 mg/kg BID daily, single agent, Day 15) was 48%, the “Average Tumor Volumes” value (LS180 cells; Study Day 1) was 272.732 mm^3 and the “Average Tumor Volumes” value (LS180 cells; Study Day 4) was 568.234 mm^3. For the same compound, the “Average Tumor Volumes” value (LS180 cells; Study Day 8) was 888.474 mm^3, the “Average Tumor Volumes” value (LS180 cells; Study Day 11) was 1009.462 mm^3 and the “Average Tumor Volumes” value (LS180 cells; Study Day 15) was 1155.8525 mm^3. For the same compound, the tumor growth inhibition (Panc 02.03 cells; Panc 02.03, TNO155 10 mg/kg BID daily, single agent, Day 22) was 58%, the “Average Tumor Volumes” value (Panc 02.03 cells; [2]) was 330.644 mm^3 and the “Average Tumor Volumes” value (Panc 02.03 cells; TNO155 10 mg/kg BID Daily, Study Day 4) was 365.57 mm^3. For the same compound, the “Average Tumor Volumes” value (Panc 02.03 cells; TNO155 10 mg/kg BID Daily, Study Day 8) was 469.4 mm^3, the “Average Tumor Volumes” value (Panc 02.03 cells; TNO155 10 mg/kg BID Daily, Study Day 11) was 522.856 mm^3 and the “Average Tumor Volumes” value (Panc 02.03 cells; TNO155 10 mg/kg BID Daily, Study Day 15) was 571.16 mm^3. The “Average Tumor Volumes” value (Panc 02.03 cells; TNO155 10 mg/kg BID Daily, Study Day 18) was 622.47 mm^3, the “Average Tumor Volumes” value (Panc 02.03 cells; TNO155 10 mg/kg BID Daily, Study Day 22) was 657.502 mm^3 and the tumor growth inhibition (AsPC-1 cells; AsPC-1, TNO155 10 mg/kg BID daily, single agent, Day 23) was 0%. For the same compound, the “Average Tumor Volumes” value (AsPC-1 cells; [2]) was 192.408 mm^3, the “Average Tumor Volumes” value (AsPC-1 cells; TNO155 10 mg/kg BID Daily, Study Day 6) was 262.654 mm^3 and the “Average Tumor Volumes” value (AsPC-1 cells; TNO155 10 mg/kg BID Daily, Study Day 9) was 263.966 mm^3. For the same compound, the “Average Tumor Volumes” value (AsPC-1 cells; TNO155 10 mg/kg BID Daily, Study Day 13) was 301.71 mm^3, the “Average Tumor Volumes” value (AsPC-1 cells; TNO155 10 mg/kg BID Daily, Study Day 16) was 317.812 mm^3 and the “Average Tumor Volumes” value (AsPC-1 cells; TNO155 10 mg/kg BID Daily, Study Day 20) was 360.412 mm^3. For the same compound, the “Average Tumor Volumes” value (AsPC-1 cells; TNO155 10 mg/kg BID Daily, Study Day 23) was 456.218 mm^3.

From US20240423984A1, “COMBINATION THERAPIES OF KRAS G12D INHIBITORS WITH SHP-2 INHIBITORS” (MIRATI THERAPEUTICS, INC., priority 2021, published 2024)
